From the supplement of paper PMC5844555

What was measured:
Assay in all cases: 3' UTR reporter interaction score (median-centred robust z-score of log2 firefly/Renilla activity); higher = less repression of the 3' UTR reporter
Conditions in all cases: HEK293T; 48 h
[1] = tested on: PHF6
Method in brief: (§1)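 A firefly luc2P reporter carrying the gene's 3' UTR (100 ng), Renilla pRL-TK control (20 ng) and miRNA mimic (2.5 pmol) were co-transfected with DharmaFECT Duo into HEK293T cells plated at 10,000/well in 96-well plates. Luciferase activities were read 48 h post-transfection. The interaction score is the log firefly/Renilla ratio as a per-plate robust z-score from median and median absolute deviation, median-centred per miRNA, and more negative indicates interaction. Values are averages of at least two independent screens.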

[2] = tested on: PHOX2B
Method in brief: as §1

[3] = tested on: FBXW7
Method in brief: as §1

[4] = tested on: RB1
Method in brief: as §1

[5] = tested on: MYC
Method in brief: as §1

[6] = tested on: MYT1L
Method in brief: as §1

[7] = tested on: MYB
Method in brief: as §1

[8] = tested on: NOTCH1
Method in brief: as §1

[9] = tested on: TP53
Method in brief: as §1

[10] = tested on: EZH2
Method in brief: as §1

[11] = tested on: HRAS
Method in brief: as §1

[12] = tested on: MYCN
Method in brief: as §1

[13] = tested on: ZEB2
Method in brief: as §1

[14] = tested on: BRCA2
Method in brief: as §1

Sequence	3' UTR reporter interaction score [1]	3' UTR reporter interaction score [2]	3' UTR reporter interaction score [3]	3' UTR reporter interaction score [4]	3' UTR reporter interaction score [5]	3' UTR reporter interaction score [6]	3' UTR reporter interaction score [7]	3' UTR reporter interaction score [8]	3' UTR reporter interaction score [9]	3' UTR reporter interaction score [10]	3' UTR reporter interaction score [11]	3' UTR reporter interaction score [12]	3' UTR reporter interaction score [13]	3' UTR reporter interaction score [14]
UGUCUUGCAGGCCGUCAUGCA	-0.169	0.814	0.883	1.34	0.266	0.257	-0.711	0.776	-1.21	-0.168	1.07	-0.456	-2.19	-0.496
UGUGACAGAUUGAUAACUGAAA	-0.291	1.05	-0.255	0.581	0.173	-1.77	0.185	1.11	0.555	0.213	-0.136	0.0393	0.919	-1.43
UGUGACUGGUUGACCAGAGGG	0.602	0.929	-1.25	-1.22	0.219	-0.108	-1.86	0.462	0.803	0.91	-0.321	-1.12	1.2	0.687
UGUGCAAAUCCAUGCAAAACUGA	0.456	-0.753	0.561	0.608	0.638	-0.216	-1.86	-0.355	0.0709	0.306	-1.63	-3.09	-2.12	-0.438
UGUGCAAAUCUAUGCAAAACUGA	0.299	0.393	0.679	0.548	-0.0223	0.342	-0.797	-0.179	0.088	-0.0175	-1.18	-2.74	-1.34	-0.799
UGUGCUUGCUCGUCCCGCCCGCAG	1.4	0.4	-0.0879	0.514	0.429	0.198	-0.522	0.256	-0.328	-0.199	-0.789	-0.114	0.763	0.879
UGUGUCACUCGAUGACCACUGU	-0.745	0.976	1.58	-0.876	0.947	-1.73	-0.364	-1.12	0.4	1.04	1.13	0.203	0.295	0.0202
UGUUUGCAGAGGAAACUGAGAC	-0.0326	-0.484	-1.52	-0.175	0.778	-0.13	1.43	-0.933	-0.173	0.739	1.34	0.322	-1.2	-0.0179
UUAAGACUUGCAGUGAUGUUUAA	-1.09	-0.221	1.23	-2.53	-0.159	-0.158	-1.14	0.344	1.42	0.772	0.424	0.438	-4.05	0.155
UUAAGGCACGCGGUGAAUGCCA	-1.29	0.282	0.904	-1.9	-0.0293	2.33	-2.16	0.623	0.35	-1.56	0.364	0.541	-0.335	-0.0269
UUAAUGCUAAUCGUGAUAGGGG	-0.0755	0.553	0.373	-0.667	0.891	-0.119	-1.61	0.178	0.0933	1.21	0.347	-0.313	-0.523	-0.67
UUACAGUUGUUCAACCAGUUACU	1.47	-0.835	-1.36	-3.47	0.385	0.162	-0.553	-0.374	0.131	0.156	0.218	-1.85	-1.76	1.74
UUAUAAUACAACCUGAUAAGUG	-0.286	-0.00808	-0.529	1.94	1.32	-1.13	-0.653	-0.345	-0.443	0.963	0.161	0.404	-0.469	0.693
UUAUCAGAAUCUCCAGGGGUAC	0.08	-1.55	0.189	-0.955	1.44	-0.147	1.26	0.0518	-0.646	-0.893	0.803	-0.164	0.799	0.769
UUAUGGUUUGCCUGGGACUGAG	-0.769	0.156	-3.46	-0.796	0.675	1.06	1.44	-0.409	-1.16	0.163	0.369	-0.255	-0.72	0.104
UUCAACGGGUAUUUAUUGAGCA	-0.872	0.542	0.647	0.475	-0.455	-0.699	-0.5	-0.631	0.52	0.563	1.35	0.423	-0.63	0.803
UUCAAGUAAUCCAGGAUAGGC	-0.0329	-0.534	1.99	-0.662	-1.71	1.27	1.11	1.68	0.423	-4.57	-0.41	-0.368	-0.465	1.36
UUCAAGUAAUUCAGGAUAGGUU	-0.939	0.967	1.51	-1.95	-1.49	1.44	1.26	1.02	-0.282	-4.18	-1.14	0.732	0.133	0.455
UUCACAGGGAGGUGUCAUUUAU	-1.72	-0.65	-3.1	0.105	0.377	0.885	-0.536	0.269	0.0668	1.32	0.0679	1.06	-0.846	-0.226
